Source: ChEMBL document CHEMBL3885861, “Open TG-GATES”

Organism: Rattus norvegicus
Assay: Open TG-GATES - Regimen: Daily Repeat
Type: toxicity, organism-based, Sprague-Dawley
Design: regimen Daily Repeat, gender Male, age 6 weeks
Details: in vivo, po, 200 mg/kg, route gavage, dose level Middle; for APTT / Bas / Eos / Fbg / Hb / Ht / Lym / MCH / MCHC / MCV / Mono / Neu / PT / Plat / RBC / Ret / WBC: tissue Blood; for KIDNEY_L / KIDNEY_R / KIDNEY_TOTAL: tissue Kidney; for LIVER: tissue Liver; for A/G / ALP / ALT / AST / BUN / CRE / Ca / Cl / DBIL / GLC / IP / K / LDH / Na / PL / RALB / TBIL / TC / TG / TP / gamma-GTP: tissue Plasma

In the case of `C[C@](N)(Cc1ccc(O)c(O)c1)C(=O)O` [METHYLDOPA], the TERMINAL_BW (72 h, time 3 day) is reported as 196.2 g, the APTT (72 h, time 3 day) is reported as 15.9 s and the Bas (72 h, time 3 day) is reported as 0%. It also gave an Eos (72 h, time 3 day) of 0.8%, a Fbg (72 h, time 3 day) of 292.8 mg/dL and a Hb (72 h, time 3 day) of 13.8 g/dL. It also gave a Ht (72 h, time 3 day) of 40.6%, a Lym (72 h, time 3 day) of 79.4% and an MCH (72 h, time 3 day) of 22.1 pg. For the same compound, the MCHC (72 h, time 3 day) was 34%, the MCV (72 h, time 3 day) was 65 fL and the Mono (72 h, time 3 day) was 2.6%. For the same compound, the Neu (72 h, time 3 day) was 16.4%, the PT (72 h, time 3 day) was 12.7 s and the Plat (72 h, time 3 day) was 107.2 x10_4/uL. It also gave an RBC (72 h, time 3 day) of 626 x10_4/ul, a Ret (72 h, time 3 day) of 7.2% and a WBC (72 h, time 3 day) of 59.1 x10_2/uL. It also gave a KIDNEY_L (72 h, time 3 day) of 0.9 g, a KIDNEY_R (72 h, time 3 day) of 0.9 g and a KIDNEY_TOTAL (72 h, time 3 day) of 1.9 g. For the same compound, the LIVER (72 h, time 3 day) was 8.5 g, the A/G (72 h, time 3 day) was 0.9 and the ALP (72 h, time 3 day) was 1722.4 IU/L. For the same compound, the ALT (72 h, time 3 day) was 53.4 IU/L, the AST (72 h, time 3 day) was 73 IU/L and the BUN (72 h, time 3 day) was 16.6 mg/dL. The CRE (72 h, time 3 day) was 0.2 mg/dL, the Ca (72 h, time 3 day) was 11.2 mg/dL and the Cl (72 h, time 3 day) was 105.8 meq/L. For the same compound, the DBIL (72 h, time 3 day) was 0.008 mg/dL, the GLC (72 h, time 3 day) was 174 mg/dL and the IP (72 h, time 3 day) was 8.4 mg/dL. For the same compound, the K (72 h, time 3 day) was 4.5 meq/L, the LDH (72 h, time 3 day) was 71.4 IU/L and the Na (72 h, time 3 day) was 145.8 meq/L. It also gave a PL (72 h, time 3 day) of 144 mg/dL, an RALB (72 h, time 3 day) of 2.7 g/dL and a TBIL (72 h, time 3 day) of 0.062 mg/dL. It also gave a TC (72 h, time 3 day) of 97 mg/dL, a TG (72 h, time 3 day) of 34 mg/dL and a TP (72 h, time 3 day) of 5.8 g/dL. For the same compound, the gamma-GTP (72 h, time 3 day) was 1 IU/L, the TERMINAL_BW ([…], time 7 day) was 218.2 g and the TERMINAL_BW ([…], time 14 day) was 271 g. For the same compound, the TERMINAL_BW ([…], time 28 day) was 346.4 g, the APTT ([…], time 7 day) was 17.4 s and the Bas ([…], time 7 day) was 0%. It also gave an Eos ([…], time 7 day) of 1%, a Fbg ([…], time 7 day) of 269.4 mg/dL and a Hb ([…], time 7 day) of 14.1 g/dL. For the same compound, the Ht ([…], time 7 day) was 40.6%, the Lym ([…], time 7 day) was 78.8% and the MCH ([…], time 7 day) was 21.5 pg. The MCHC ([…], time 7 day) was 34.7%, the MCV ([…], time 7 day) was 61.9 fL and the Mono ([…], time 7 day) was 3.6%. The Neu ([…], time 7 day) was 16.2%, the PT ([…], time 7 day) was 12.2 s and the Plat ([…], time 7 day) was 122.9 x10_4/uL. The RBC ([…], time 7 day) was 656.4 x10_4/ul, the Ret ([…], time 7 day) was 4.5% and the WBC ([…], time 7 day) was 71.2 x10_2/uL. For the same compound, the APTT ([…], time 14 day) was 16.1 s, the Bas ([…], time 14 day) was 0% and the Eos ([…], time 14 day) was 1%. The Fbg ([…], time 14 day) was 278.2 mg/dL, the Hb ([…], time 14 day) was 13.8 g/dL and the Ht ([…], time 14 day) was 39.5%. The Lym ([…], time 14 day) was 80.6%, the MCH ([…], time 14 day) was 20.9 pg and the MCHC ([…], time 14 day) was 34.9%. For the same compound, the MCV ([…], time 14 day) was 59.9 fL, the Mono ([…], time 14 day) was 1.8% and the Neu ([…], time 14 day) was 16.2%. It also gave a PT ([…], time 14 day) of 14.2 s, a Plat ([…], time 14 day) of 111.8 x10_4/uL and an RBC ([…], time 14 day) of 659.4 x10_4/ul. The Ret ([…], time 14 day) was 4.9%, the WBC ([…], time 14 day) was 82.5 x10_2/uL and the APTT ([…], time 28 day) was 17.8 s. For the same compound, the Bas ([…], time 28 day) was 0%, the Eos ([…], time 28 day) was 1.2% and the Fbg ([…], time 28 day) was 280 mg/dL. The Hb ([…], time 28 day) was 15.1 g/dL, the Ht ([…], time 28 day) was 43% and the Lym ([…], time 28 day) was 81.2%. The MCH ([…], time 28 day) was 19.8 pg, the MCHC ([…], time 28 day) was 35.1% and the MCV ([…], time 28 day) was 56.5 fL. The Mono ([…], time 28 day) was 1.4%, the Neu ([…], time 28 day) was 15.6% and the PT ([…], time 28 day) was 14 s. It also gave a Plat ([…], time 28 day) of 101.7 x10_4/uL, an RBC ([…], time 28 day) of 760.8 x10_4/ul and a Ret ([…], time 28 day) of 2.3%. The WBC ([…], time 28 day) was 76.9 x10_2/uL, the KIDNEY_L ([…], time 7 day) was 0.9 g and the KIDNEY_R ([…], time 7 day) was 0.9 g. It also gave a KIDNEY_TOTAL ([…], time 7 day) of 1.9 g, a KIDNEY_L ([…], time 14 day) of 1.1 g and a KIDNEY_R ([…], time 14 day) of 1 g. For the same compound, the KIDNEY_TOTAL ([…], time 14 day) was 2.1 g, the KIDNEY_L ([…], time 28 day) was 1.2 g and the KIDNEY_R ([…], time 28 day) was 1.2 g. The KIDNEY_TOTAL ([…], time 28 day) was 2.4 g, the LIVER ([…], time 7 day) was 8.8 g and the LIVER ([…], time 14 day) was 10.2 g. The LIVER ([…], time 28 day) was 12.9 g, the A/G ([…], time 7 day) was 0.9 and the ALP ([…], time 7 day) was 1381.2 IU/L. For the same compound, the ALT ([…], time 7 day) was 45.4 IU/L, the AST ([…], time 7 day) was 67.8 IU/L and the BUN ([…], time 7 day) was 14.2 mg/dL. For the same compound, the CRE ([…], time 7 day) was 0.2 mg/dL, the Ca ([…], time 7 day) was 10.8 mg/dL and the Cl ([…], time 7 day) was 107.4 meq/L. The DBIL ([…], time 7 day) was 0.01 mg/dL, the GLC ([…], time 7 day) was 179.8 mg/dL and the IP ([…], time 7 day) was 7.7 mg/dL. It also gave a K ([…], time 7 day) of 4.3 meq/L, an LDH ([…], time 7 day) of 54.2 IU/L and a Na ([…], time 7 day) of 143.4 meq/L. It also gave a PL ([…], time 7 day) of 132.4 mg/dL, an RALB ([…], time 7 day) of 2.7 g/dL and a TBIL ([…], time 7 day) of 0.068 mg/dL. It also gave a TC ([…], time 7 day) of 84.2 mg/dL, a TG ([…], time 7 day) of 36.2 mg/dL and a TP ([…], time 7 day) of 5.7 g/dL. It also gave a gamma-GTP ([…], time 7 day) of 0.8 IU/L, an A/G ([…], time 14 day) of 0.8 and an ALP ([…], time 14 day) of 1316.6 IU/L. For the same compound, the ALT ([…], time 14 day) was 42.2 IU/L, the AST ([…], time 14 day) was 61.8 IU/L and the BUN ([…], time 14 day) was 12.6 mg/dL. For the same compound, the CRE ([…], time 14 day) was 0.2 mg/dL, the Ca ([…], time 14 day) was 11 mg/dL and the Cl ([…], time 14 day) was 105.2 meq/L. For the same compound, the DBIL ([…], time 14 day) was 0.002 mg/dL, the GLC ([…], time 14 day) was 182.2 mg/dL and the IP ([…], time 14 day) was 7.1 mg/dL. It also gave a K ([…], time 14 day) of 4.4 meq/L, an LDH ([…], time 14 day) of 58 IU/L and a Na ([…], time 14 day) of 141.6 meq/L. The PL ([…], time 14 day) was 137 mg/dL, the RALB ([…], time 14 day) was 2.6 g/dL and the TBIL ([…], time 14 day) was 0.054 mg/dL. For the same compound, the TC ([…], time 14 day) was 87.6 mg/dL, the TG ([…], time 14 day) was 35.2 mg/dL and the TP ([…], time 14 day) was 5.7 g/dL. The gamma-GTP ([…], time 14 day) was 0.8 IU/L, the A/G ([…], time 28 day) was 0.8 and the ALP ([…], time 28 day) was 1006.8 IU/L. For the same compound, the ALT ([…], time 28 day) was 39.8 IU/L, the AST ([…], time 28 day) was 55.4 IU/L and the BUN ([…], time 28 day) was 13.2 mg/dL. The CRE ([…], time 28 day) was 0.2 mg/dL, the Ca ([…], time 28 day) was 10.7 mg/dL and the Cl ([…], time 28 day) was 104.8 meq/L. It also gave a DBIL ([…], time 28 day) of 0.018 mg/dL, a GLC ([…], time 28 day) of 182.2 mg/dL and an IP ([…], time 28 day) of 6.4 mg/dL. It also gave a K ([…], time 28 day) of 4 meq/L, an LDH ([…], time 28 day) of 39.8 IU/L and a Na ([…], time 28 day) of 142.8 meq/L. It also gave a PL ([…], time 28 day) of 144.6 mg/dL, an RALB ([…], time 28 day) of 2.7 g/dL and a TBIL ([…], time 28 day) of 0.052 mg/dL. The TC ([…], time 28 day) was 89.2 mg/dL, the TG ([…], time 28 day) was 50.8 mg/dL and the TP ([…], time 28 day) was 6.1 g/dL. It also gave a gamma-GTP ([…], time 28 day) of 1.2 IU/L.
